Experimental findings from patent US20260274876A1, “3-PYRROLIDINE-INDOLE DIMERS AS SEROTONERGIC AGENTS USEFUL FOR THE TREATMENT OF DISORDERS RELATED THERETO” (MINDSET PHARMA INC., priority 2022, published 2026) are described below.

Test [1] deals with T1, human 5-HT1A receptor (Homo sapiens, UniProt P08908).
T1 sequence (P08908 1-422): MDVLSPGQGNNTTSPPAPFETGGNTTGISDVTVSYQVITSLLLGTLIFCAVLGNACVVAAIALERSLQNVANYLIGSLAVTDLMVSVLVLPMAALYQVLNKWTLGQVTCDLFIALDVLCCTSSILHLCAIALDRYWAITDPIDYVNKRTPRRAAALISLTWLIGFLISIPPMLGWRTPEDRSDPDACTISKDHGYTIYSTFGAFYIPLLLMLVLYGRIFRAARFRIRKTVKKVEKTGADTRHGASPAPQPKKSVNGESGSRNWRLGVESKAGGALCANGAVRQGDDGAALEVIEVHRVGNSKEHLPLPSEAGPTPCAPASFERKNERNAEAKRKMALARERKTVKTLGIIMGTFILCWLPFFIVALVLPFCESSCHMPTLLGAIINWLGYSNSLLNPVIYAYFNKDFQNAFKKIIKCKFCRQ
Description: Human 5-HT1A radioligand binding assay ([3H]-8-Hydroxy-DPAT). The protocol: The objective of this study was to evaluate the binding properties of test compounds on 5-hydroxytryptamine receptor 1A (5-HT1A).
• 1. The assay buffer was prepared following the table below.
• 2. 8 doses of reference and test compounds were prepared starting from 10 mM stock solution as required by 5-fold serial dilutions with 100% (v/v) DMSO. • 3. UniFilter-96 GF/B plate was pretreated: • i. 50 μl/well of 0.5% (v/v) PEI was added to UniFilter-96 GF/B plates. The plates were sealed and incubated at 4° C. for 3 hrs. • ii. After incubation, the plates were washed 3 times with ice-cold wash buffer (50 mM Tris, pH7.4). • 4. Assay plate was prepared: • i. Cell membrane was diluted with assay buffer and 100 μl/well was added to 96 round well plates to reach a concentration of 20 μg/well. • ii. 8 concentrations of reference or test compounds were prepared and 50 μl/well was added to 96 round deep well plates. • iii. [3H]-8-Hydroxy-DPAT was diluted with assay buffer to 2 nM (4×final concentration) and 50 μl/well was added to 96 round well plates. • 5. The plate was centrifuged at 1000 rpm for 30 secs and then agitated at 600 rpm, R.T. for 5 min. • 6. The plates were sealed and the plate was incubated at 27° C. for 90 min. • 7. The incubation was stopped by vacuum filtration onto GF/B filter plates followed by 4 times washing with ice-cold wash buffer (50 mM Tris, pH7.4). • 8. The plates were dried at 37° C. for 45 min. • 9. The filter plates were sealed and 40 μl/well of scintillation cocktail was added. • 10. The plate was read by using a Microbeta^2 microplate counter.
• 1. For reference and test compounds, the results were expressed as % Inhibition, using the normalization equation: N=100−100×(U−C2)/(C1−C2), where U is the unknown value, C1 is the average of high controls, and C2 is the average of low controls. • 2. The IC50 was determined by fitting percentage of inhibition as a […] of compound concentrations with Hill equation using XLfit.

For test [2], the target named is T1, human 5-HT1A receptor. Description: Human 5-HT1A functional FLIPR assay (agonist mode). More on the design: expressed in transfected cells. The settings on record: h5-HT1A, curve fitting with activation (%) @ 10 mM with RFU (footnote). In kind it is cell-based. The protocol:
The potential excitatory effects of compounds targeting on 5-hydroxytryptamine receptor 1A (5-HT1A) under agonist mode was assessed.
HTR1A&Gα15-CHO cells were cultured in DMEM/F12 medium containing 10% dialyzed FBS, 1×penicillin-streptomycin and 600 μg/mL Hygromycin B. The cells were passaged about three times a week, maintained between ~30% to ~90% confluence.
• 1. The cell culture medium (DMEM/F12 medium containing 10% dialyzed FBS, 1×penicillin-streptomycin and 600 μg/mL Hygromycin B), TrypLE™ Express and DPBS was warmed to R.T. in advance. • 2. The cell culture medium was removed from flask. Washed cells with DPBS. • 3. 1 mL TrypLE™ Express was added to the flask, mixed well by gentle shaking and cells were incubated at 37° C. for a few minutes. • 4. The cells were checked for morphological change under microscope, the digestion was stopped by adding 2 mL cell culture medium to the flask when most of cells turned to round. • 5. The cell suspension was transferred into a 15 mL centrifuge tube, and then centrifuged at 1,200 rpm for 5 minutes. • 6. The supernatant was removed. The cell pellet were resuspended with 2 mL cell culture medium. • 7. The cell density were counted using cell counter. Only cells with >85% viability were used for the assay. • 8. Cells were diluted to 4×10^5/mL with cell culture medium. • 9. 30 μL/well cell suspensions were added into a 384-well cell plate (The cell density was 12,000 cells/well). • 10. The cell plate was incubated overnight at 37° C., 5% (v/v) CO2.
• 1. On the day of experiments, culture medium was removed from the cell plate. • 2. 10 μL of assay buffer (20 mM HEPES, in 1×HBSS, pH 7.4) was added to each well of the cell plate. • 3. 2×dye solution was prepared following the manufacture's instruction of the FLIPR® Calcium 6 assay kit: • i. The dye was diluted with assay buffer. • ii. probenecid was added to the final concentration of 5 mM. • iii. Vortexed vigorously for I-2 minutes, adjust pH to 7.4. • 4. 10 μL of 2×dye solution was added to each well of the cell plate. • 5. The cell plate was placed on plate shaker, followed by shaking at 600 rpm for 2 minutes. • 6. The plate was incubated at 37° C. for 2 hours followed by an additional 15-minute incubation at 25° C.
• 1. Serotonin was prepared to the concentration of 10 mM with DMSO, 3-folds serial dilutions were performed with DMSO. • 2. Prepare the test compound to the concentration of 10 mM with DMSO, preform 3-folds serial dilutions with DMSO. • 3. The compounds were added to a 384-well compound source plate. • 4. 90 nL/well of serial diluted compounds were transferred from source plate to a 384-well compound plate by using an Echo. • 5. 30 μL/well of assay buffer was added to the compound plate. • 6. The plate was mixed on-plate shaker for 2 minutes.
• 1. After the cells incubate with dye solution, the cell plate, compound plate containing 3×compounds and FLIPR tips were placed into FLIPR. • 2. 10 μL of 3×compounds were transferred from the compound plate to the cell plate by FLIPR. • 3. The plate was read for 160 sec with 1 sec interval to obtain the data of agonist mode.
• 1. The normalized fluorescence reading (RFU) was calculated as shown below, wherein Fmax and Fmin stand for maximum and minimum of calcium signal during defined time window:
[formula] • 2. EC50 was calculated by fitting RFU against log of compound concentrations with Hill equation using XLfit.

Read-outs that look alike come from different tables or passages of the source.

By IC50 is commonly meant the concentration needed to halve the response being measured. On to `[2H]C([2H])(c1c[nH]c2cccc(OC(=O)CCCC(=O)Oc3cccc4[nH]cc(C([2H])([2H])[C@H]5CCCN5C([2H])([2H])[2H])c34)c12)[C@H]1CCCN1C([2H])([2H])[2H]` [Compound I-22, bis(3-(((R)-1-(methyl-d3)pyrrolidin-2-yl)methyl-d2)-1H-indol-4-yl) glutarate], for which the IC50 on human 5-HT1A receptor [1] came to 124 nM. On human 5-HT1A receptor [2], the “RFU@10 μM” value is recorded as 130 RFU.

In the case of `[2H]C([2H])(c1c[nH]c2cccc(O)c12)[C@H]1CCCN1C([2H])([2H])[2H]` [Compound 13, (R)-3-((1-(methyl-d3)pyrrolidin-2-yl)methyl-d2)-1H-indol-4-ol], at human 5-HT1A receptor [1], the IC50 is 156 nM. Also, at human 5-HT1A receptor [2], the “RFU@10 μM” value is reported as 307 RFU.

For the compound `CN1CCC[C@@H]1Cc1c[nH]c2cccc(O)c12` [Compound 10, (R)-3-((1-methylpyrrolidin-2-yl)methyl)-1H-indol-4-ol], the half-inhibitory concentration (IC50) at human 5-HT1A receptor [1] stood at 148 nM. The “RFU@10 μM” value at human 5-HT1A receptor [2] was determined as 425 RFU.

As for `CN1CCC[C@@H]1Cc1c[nH]c2cccc(OC(=O)CCCC(=O)Oc3cccc4[nH]cc(C[C@H]5CCCN5C)c34)c12` [Compound I-13, Bis(3-(((R)-1-methylpyrrolidin-2-yl)methyl)-1H-indol-4-yl) glutarate], the IC50 at human 5-HT1A receptor [1] was 154 nM. Moreover, the “RFU@10 μM” value at human 5-HT1A receptor [2] was 87 RFU.

In the case of `CN(C)CCc1c[nH]c2cccc(O)c12` [Psilocin, 4-hydroxy-N,N-dimethyltryptamine, reference compound], the IC50 on human 5-HT1A receptor [1] (radioligand binding, [3H]-8-Hydroxy-DPAT, read-out: h5-HT1A, IC50) was determined as 196 nM. Moreover, on human 5-HT1A receptor [2], the “RFU@10 μM” value stood at 140 RFU.
